Results on 14 compounds are retold here after BindingDB's records for doi:10.1021/bi400413c (Stony Brook University, 2013).

The experiment addresses T1, Enoyl-[acyl-carrier-protein] reductase [NADPH] FabI (Staphylococcus aureus (strain MRSA252), UniProt Q6GI75).
T1 sequence (Q6GI75 whole entry): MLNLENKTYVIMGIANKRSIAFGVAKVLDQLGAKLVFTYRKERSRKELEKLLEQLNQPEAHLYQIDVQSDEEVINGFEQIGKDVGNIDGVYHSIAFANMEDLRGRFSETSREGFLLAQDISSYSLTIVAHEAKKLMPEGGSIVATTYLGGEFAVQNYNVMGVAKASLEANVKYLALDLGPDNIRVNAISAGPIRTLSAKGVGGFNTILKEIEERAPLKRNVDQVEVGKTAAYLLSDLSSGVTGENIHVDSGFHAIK
As to the kind of experiment: Thermal Shift Assay. As to conditions: pH 7.5. Here is the method:
ThermoFluor experiments were carried out in 96-well plates (Concord) using the CFX96 RealTime PCR Detection system and C1000 Thermal Cycler (BioRad).
The Ki is the dissociation constant of the complex between target and ligand, obtained from inhibition or displacement. For `Oc1cc(Cc2ccccc2)ccc1Oc1ccccc1` [PT89], the Ki is 0.1 nM.

For the compound `Oc1cc(F)ccc1Oc1ccccc1` [PT55], the Ki is 1.42 nM.

As to `N#Cc1ccccc1Oc1ccc(F)cc1O` [PT446], the Ki was found to be 1.01 nM.

As for `N#Cc1ccccc1Oc1ccc(Br)cc1O` [PT443], the Ki was found to be 0.05 nM.

On to `CCCCCCCCc1ccc(Oc2ccccc2)c(O)c1` [5-Octyl-2-phenoxy-phenol], for which the Ki was 0.82 nM.

Turning to `Cc1ccccc1Oc1ccc(CCc2ccccc2)cc1O` [PT162], the Ki is 0.5 nM.

For the compound `C=CCc1ccc(Oc2ccccc2)c(O)c1` [PT68], the Ki was 0.11 nM.

Turning to `CCCc1ccc(Oc2ccccc2)c(O)c1` [PT02], the Ki worked out at 0.07 nM.

With `Oc1cc(Br)ccc1Oc1ccccc1` [5-bromo-2-phenoxylphenol], the Ki amounted to 0.06 nM.

Regarding `CCCCCCc1ccc(Oc2ccccc2N)c(O)c1`, the Ki worked out at 0.12 nM.

With `CCCCCCc1ccc(Oc2ccccc2)c(O)c1` [5-hexyl-2-phenoxyphenol], the inhibitory constant (Ki) was found to be 0.01 nM.

Regarding `Oc1ccccc1Oc1ccccc1` [2-phenoxylphenol], the Ki was 18.9 nM.

For the compound `CCCCCc1ccc(Oc2ccccc2)c(O)c1` [5-pentyl-2-phenoxylphenol], the Ki is 0.04 nM.

Take `Cc1ccc(Oc2ccccc2)c(O)c1` [PT53]: the Ki is 0.38 nM.
